Reference: patent publication US10759781B2, “Substituted guanidine derivatives” (UBE INDUSTRIES, LTD., priority 2015, dated 2020)

Target: T1, Human VAP-1 enzyme (Homo sapiens, UniProt Q16853)
T1 construct: purchased R&D Systems, Inc
T1 sequence (Q16853 1-763): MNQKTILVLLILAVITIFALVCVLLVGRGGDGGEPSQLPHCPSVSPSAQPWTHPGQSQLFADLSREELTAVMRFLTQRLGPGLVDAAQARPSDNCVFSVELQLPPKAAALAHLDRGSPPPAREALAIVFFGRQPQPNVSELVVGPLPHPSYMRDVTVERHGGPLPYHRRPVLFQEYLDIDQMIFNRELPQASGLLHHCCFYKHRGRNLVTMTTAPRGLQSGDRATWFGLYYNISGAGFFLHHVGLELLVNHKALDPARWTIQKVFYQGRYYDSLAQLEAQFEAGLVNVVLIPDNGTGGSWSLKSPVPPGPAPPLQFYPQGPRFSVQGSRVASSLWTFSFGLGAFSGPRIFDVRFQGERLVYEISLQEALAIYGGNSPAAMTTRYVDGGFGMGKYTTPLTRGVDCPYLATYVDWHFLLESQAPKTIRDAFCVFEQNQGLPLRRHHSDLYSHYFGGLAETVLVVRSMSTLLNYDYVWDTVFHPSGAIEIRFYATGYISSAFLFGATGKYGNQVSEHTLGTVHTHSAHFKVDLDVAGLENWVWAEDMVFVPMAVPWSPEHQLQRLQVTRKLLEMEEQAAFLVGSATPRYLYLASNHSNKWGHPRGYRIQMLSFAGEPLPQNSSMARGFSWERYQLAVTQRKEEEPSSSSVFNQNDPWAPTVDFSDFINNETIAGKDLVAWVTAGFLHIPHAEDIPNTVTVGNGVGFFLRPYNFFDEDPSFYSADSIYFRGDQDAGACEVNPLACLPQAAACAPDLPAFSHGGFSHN
Assay: Human VAP-1 enzyme inhibition test
Type: biochemical
Details: 1 h; compound 30 nM; 14C-benzylamine 100 μM; read-out: inhibition ratio (human VAP-1 enzyme)
Description: Human VAP-1 enzyme inhibition test
This test was conducted by modifying the method of P. H. Yu et al. (Diabetologia 40 1243 (1997)). Human VAP-1 enzyme (R&D Systems, Inc.) was pre-incubated in a 96-well plate with the compound dissolved in dimethylsulfoxide at room temperature for 20 minutes. Next, in a solution to the final volume of 200 μL, the enzyme reaction solution was incubated with ^14C-benzylamine (final concentration 100 μM) at 37° C. for 1 hour. The reaction was terminated by the addition of 100 μL of 2 M citric acid solution to the reaction solution. The oxidative product was extracted using a toluene/ethyl acetate mixture and the radioactivity was measured with a liquid scintillation counter. The inhibition ratio of the compound was calculated using the following equation. Inhibition ratio={1−[VAP-1 enzyme activity after treatment with the compound]/[VAP-1 enzyme activity in the presence of dimethylsulfoxide alone without the compound]}×100

Compound	inhibition at 0.03 µM [%]
N=C(N)NC(=O)OCc1cccc(-c2cnc(N3CC(=NOCCCC(=O)O)C3)nc2)c1F [Example 115, 4-[({1-[5-(3-{[(Carbamimidoylcarbamoyl)oxy]methyl}-2-fluorophenyl)pyrimidin-2-yl]azetidin-3-ylidene}amino)oxy]butanoic acid]	≥ 50
CNC(=O)CCCON=C1CN(c2ncc(-c3cccc(COC(=O)NC(=N)N)c3F)cn2)C1 [Example 116, 2-Fluoro-3-[2-(3-{[4-(methylamino)-4-oxobutoxy]imino}azetidin-1-yl)pyrimidin-5-yl]benzyl carbamimidoylcarbamate]	≥ 50
CN(C)CCON=C1CN(c2ncc(-c3cccc(COC(=O)NC(=N)N)c3F)cn2)C1 [Example 117, 3-[2-(3-{[2-(Dimethylamino)ethoxy]imino}azetidin-1-yl)pyrimidin-5-yl]-2-fluorobenzyl carbamimidoylcarbamate]	≥ 50
CN(CCON=C1CN(c2ncc(-c3cccc(COC(=O)NC(=N)N)c3F)cn2)C1)Cc1ccccc1 [Example 118, 3-{2-[3-({2-[Benzyl(methyl)amino]ethoxy}imino)azetidin-1-yl]pyrimidin-5-yl}-2-fluorobenzyl carbamimidoylcarbamate]	≥ 50
CC(=O)NCC(CO)CON=C1CN(c2ncc(-c3cccc(COC(=O)NC(=N)N)c3F)cn2)C1 (centres unmarked) [Example 120, 3-[2-(3-{[3-Acetamido-2-(hydroxymethyl)propoxy]imino}azetidin-1-yl)pyrimidin-5-yl]-2-fluorobenzyl carbamimidoylcarbamate]	≥ 50
CN(C)CC(CO)CON=C1CN(c2ncc(-c3cccc(COC(=O)NC(=N)N)c3F)cn2)C1 (centres unmarked) [Example 122, 3-[2-(3-{[3-(Dimethylamino)-2-(hydroxymethyl)propoxy]imino}azetidin-1-yl)pyrimidin-5-yl]-2-fluorobenzyl carbamimidoylcarbamate]	≥ 50
COC(CNC(C)=O)CON=C1CN(c2ncc(-c3cccc(COC(=O)NC(=N)N)c3F)cn2)C1 (centres unmarked) [Example 123, 3-(2-{3-[(3-Acetamido-2-methoxypropoxy)imino]azetidin-1-yl}pyrimidin-5-yl)-2-fluorobenzyl carbamimidoylcarbamate]	≥ 50
N=C(N)NC(=O)OCc1cccc(-c2cnc(N3CC(=NOCCN4CCCCC4)C3)nc2)c1F [Example 124, 2-Fluoro-3-[2-(3-{[2-(piperidin-1-yl)ethoxy]imino}azetidin-1-yl)pyrimidin-5-yl]benzyl carbamimidoylcarbamate]	≥ 50
N=C(N)NC(=O)OCc1cccc(-c2cnc(N3CC(=NOCCN4CCOCC4)C3)nc2)c1F [Example 125, 2-Fluoro-3-(2-{3-[(2-morpholinoethoxy)imino]azetidin-1-yl}pyrimidin-5-yl)benzyl carbamimidoylcarbamate]	≥ 50
N=C(N)NC(=O)OCc1cccc(-c2cnc(N3CC(=NOCCN4CCC4)C3)nc2)c1F [Example 126, 3-[2-(3-{[2-(Azetidin-1-yl)ethoxy]imino}azetidin-1-yl)pyrimidin-5-yl]-2-fluorobenzyl carbamimidoylcarbamate]	≥ 50
N=C(N)NC(=O)OCc1cccc(-c2cnc(N3CC(=NOCCN4CC(F)C4)C3)nc2)c1F [Example 128, 2-Fluoro-3-[2-(3-{[2-(3-fluoroazetidin-1-yl)ethoxy]imino}azetidin-1-yl)pyrimidin-5-yl]benzyl carbamimidoylcarbamate]	≥ 50
CN1CCOC(CON=C2CN(c3ncc(-c4cccc(COC(=O)NC(=N)N)c4F)cn3)C2)C1 (centres unmarked) [Example 130, 2-Fluoro-3-[2-(3-{[(4-methylmorpholin-2-yl)methoxy]imino}azetidin-1-yl)pyrimidin-5-yl]benzyl carbamimidoylcarbamate]	≥ 50
CC(=O)N1CCOC(CON=C2CN(c3ncc(-c4cccc(COC(=O)NC(=N)N)c4F)cn3)C2)C1 (centres unmarked) [Example 131, 3-[2-(3-{[(4-Acetylmorpholin-2-yl)methoxy]imino}azetidin-1-yl)pyrimidin-5-yl]-2-fluorobenzyl carbamimidoylcarbamate]	≥ 50
N=C(N)NC(=O)OCc1cccc(-c2cnc(N3CC(=NOCC4CCC(=O)O4)C3)nc2)c1F (centres unmarked) [Example 132, 2-Fluoro-3-[2-(3-{[(5-oxotetrahydrofuran-2-yl)methoxy]imino}azetidin-1-yl)pyrimidin-5-yl]benzyl carbamimidoylcarbamate]	≥ 50
N=C(N)NC(=O)OCc1cccc(-c2cnc(N3CC(=NOCc4ccccc4)C3)nc2)c1F [Example 135, 3-(2-{3-[(Benzyloxy)imino]azetidin-1-yl}pyrimidin-5-yl)-2-fluorobenzyl carbamimidoylcarbamate]	≥ 50
COc1ccc(CON=C2CN(c3ncc(-c4cccc(COC(=O)NC(=N)N)c4F)cn3)C2)cc1 [Example 136, 2-Fluoro-3-[2-(3-{[(4-methoxybenzyl)oxy]imino}azetidin-1-yl)pyrimidin-5-yl]benzyl carbamimidoylcarbamate]	≥ 50
CN1CC(ON=C2CN(c3ncc(-c4cccc(COC(=O)NC(=N)N)c4F)cn3)C2)C1 [Example 137, 2-Fluoro-3-[2-(3-{[(1-methylazetidin-3-yl)oxy]imino}azetidin-1-yl)pyrimidin-5-yl]benzyl carbamimidoylcarbamate]	≥ 50
CC(=O)N1CC(ON=C2CN(c3ncc(-c4cccc(COC(=O)NC(=N)N)c4F)cn3)C2)C1 [Example 138, 3-[2-(3-{[(1-Acetylazetidin-3-yl)oxy]imino}azetidin-1-yl)pyrimidin-5-yl]-2-fluorobenzyl carbamimidoylcarbamate]	≥ 50
N=C(N)NC(=O)OCc1cccc(-c2cnc(N3CC(=NOC4CN(Cc5ccccc5)C4)C3)nc2)c1F [Example 139, 3-[2-(3-{[(1-Benzylazetidin-3-yl)oxy]imino}azetidin-1-yl)pyrimidin-5-yl]-2-fluorobenzyl carbamimidoylcarbamate]	≥ 50
N=C(N)NC(=O)OCc1cccc(-c2cnc(N3CC(=NOC4CN(CC(F)(F)F)C4)C3)nc2)c1F [Example 140, 2-Fluoro-3-{2-[3-({[1-(2,2,2-trifluoroethyl)azetidin-3-yl]oxy}imino)azetidin-1-yl]pyrimidin-5-yl}benzyl carbamimidoylcarbamate]	≥ 50
CCN1CC(ON=C2CN(c3ncc(-c4cccc(COC(=O)NC(=N)N)c4F)cn3)C2)C1 [Example 142, 3-[2-(3-{[(1-Ethylazetidin-3-yl)oxy]imino}azetidin-1-yl)pyrimidin-5-yl]-2-fluorobenzyl carbamimidoylcarbamate]	≥ 50
COC(=O)N1CC(ON=C2CN(c3ncc(-c4cccc(COC(=O)NC(=N)N)c4F)cn3)C2)C1 [Example 143, Methyl 3-[({1-[5-(3-{[(carbamimidoylcarbamoyl)oxy]methyl}-2-fluorophenyl)pyrimidin-2-yl]azetidin-3-ylidene}amino)oxy]azetidin-1-carboxylate]	≥ 50
N=C(N)NC(=O)OCc1cccc(-c2cnc(N3CC(=NOC4CN(CCO)C4)C3)nc2)c1F [Example 146, 2-Fluoro-3-{2-[3-({[1-(2-hydroxyethyl)azetidin-3-yl]oxy}imino)azetidin-1-yl]pyrimidin-5-yl}benzyl carbamimidoylcarbamate]	≥ 50
